Test results published in patent US9487489B2, “Halogen-substituted pyrazole derivatives as pest-control agents” (BAYER CROPSCIENCE AKTIENGESELLSCHAFT, priority 2013, dated 2016).

What was measured:
[1] = tested on: adult houseflies (Musca domestica); assay: Musca domestica test (MUSCDO); type: in vivo; conditions: application rate 100 ppm; after 2 days
Method: F. Musca domestica Test (MUSCDO)
(§1) Solvent: dimethyl sulphoxide
(§2) To produce a suitable preparation of active compound, 10 mg of active compound are mixed with 0.5 ml of dimethyl sulphoxide, and the concentrate is diluted with water to the desired concentration.
Vessels containing a sponge treated with sugar solution and the active compound preparation of the desired concentration are populated with 10 adult houseflies (Musca domestica).
After 2 days, the kill in % is determined. 100% means that all of the flies have been killed; 0% means that none of the flies have been killed.

[2] = tested on: larvae of the mustard beetle (Phaedon cochleariae); assay: Phaedon cochleariae spray test (PHAECO); type: in vivo; conditions: Chinese cabbage leaf discs, after 7 days
Outline: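 Compound dissolved in acetone/dimethylformamide with alkylaryl polyglycol ether emulsifier, made up in water containing 1000 ppm emulsifier, then diluted to test concentrations and sprayed against mustard beetle larvae. Efficacy (% larvae killed) scored after 7 days.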

[3] = tested on: adult cat fleas (Ctenocephalides felis); assay: Ctenocephalides felis oral test (CTECFE); type: in vivo; conditions: application rate 100 ppm in citrated cattle blood; after 2 days
Method: D. Ctenocephalides felis-oral Test (CTECFE)
as §1
To produce a suitable preparation of active compound, 10 mg of active compound are mixed with 0.5 ml of dimethyl sulphoxide. Dilution with citrated cattle blood gives the desired concentration.
About 20 unfed adult cat fleas (Ctenocephalides felis) are placed into a chamber which is closed at the top and bottom with gauze. A metal cylinder whose bottom end is closed with a parafilm is placed onto the chamber. The cylinder contains the blood/active ingredient preparation, which can be imbibed by the fleas through the parafilm membrane.
After 2 days, the kill in % is determined 100% means that all of the fleas have been killed; 0% means that none of the fleas have been killed.

[4] = tested on: L1 larvae of the Australian sheep blowfly (Lucilia cuprina); assay: Lucilia cuprina test (LUCICU); type: in vivo; conditions: application rate 100 ppm; after 2 days
Method: E. Lucilia cuprina Test (LUCICU)
as §1, §2
About 20 L1 larvae of the Australian sheep blowfly (Lucilia cuprina) are transferred into a test vessel containing minced horsemeat and the active compound preparation of the desired concentration.
After 2 days, the kill in % is determined 100% means that all of the larvae have been killed; 0% means that none of the larvae have been killed.

[5] = tested on: caterpillars of the armyworm (Spodoptera frugiperda); assay: Spodoptera frugiperda spray test (SPODFR); type: in vivo; conditions: maize leaf discs, after 7 days
Outline: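 Maize leaf discs sprayed with compound in acetone/DMF with alkylaryl polyglycol ether emulsifier (1000 ppm) in water, dried, then infested with armyworm caterpillars. Mortality (%) scored after 7 days; 100% = all caterpillars killed, 0% = none killed.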

[6] = logP determination by HPLC on a reversed-phase column (C18), EEC Directive 79/831 Annex V.A8; type: physicochemical
Outline: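 Retention on a C18 reversed-phase column (Zorbax Eclipse Plus, 1.8 micron) was used, eluting with acetonitrile/water, each containing formic acid. The gradient ran from 10% to 95% acetonitrile over 4.25 min, then held 1.25 min, at 55° C and 2.0 ml/min, with MS detection.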

[7] = tested on: engorged adult female cattle ticks (Boophilus microplus); assay: Boophilus microplus injection test (BOOPMI Inj); type: in vivo; conditions: application rate 20 μg/animal; injection into abdomen; assessed after 7 days
Method: C. Boophilus microplus-injection Test (BOOPMI Inj)
as §1
To produce a suitable preparation of active compound, 10 mg of active compound are mixed with 0.5 ml of solvent, and the concentrate is diluted with solvent to the desired concentration.
1 μl of the active compound solution is injected into the abdomen of 5 engorged adult female cattle ticks (Boophilus microplus). The animals are transferred into dishes and kept in a climate-controlled room.
The activity is assessed after 7 days by laying of fertile eggs. Eggs whose fertility is not visible from the outside are stored in a climate-controlled cabinet until the larvae hatch after about 42 days. An efficacy of 100% means that none of the ticks has laid any fertile eggs; 0% means that all eggs are fertile.

[8] = tested on: greenhouse red spider mite (Tetranychus urticae); assay: Tetranychus urticae spray test, OP-resistant (TETRUR); type: in vivo; conditions: application rate 100 g/ha; bean leaf discs; after 6 days
Outline: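 Bean leaf discs carrying all stages of OP-resistant Tetranychus urticae were sprayed with compound formulated in acetone/dimethylformamide and diluted in water with 1000 ppm alkylaryl polyglycol ether emulsifier. Mortality (% efficacy, 100% = all mites killed) scored after 6 days.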

[9] = tested on: adult dog ticks (Rhipicephalus sanguineus); assay: Rhipicephalus sanguineus in vitro contact test with adult brown dog ticks (T2); conditions: after 48 h
Method: T2. Rhipicephalus sanguineus-in vitro Contact Tests with Adult Brown Dog Ticks
For the coating of the test tubes, initially 9 mg of active compound are dissolved in 1 ml of acetone p.a. and then diluted with acetone p.a. to the desired concentration. By turning and rocking on an orbital shaker (2 h of rocking rotation at 30 rpm), 250 μl of the solution are distributed homogeneously on the internal walls and the floor of a 25 ml test tube. At 900 ppm active compound solution and 44.7 cm^2 internal surface, an area dose of 5 μg/cm^2 is achieved for homogeneous distribution.
After evaporation of the solvent, the tubes are populated with 5-10 adult dog ticks (Rhipicephalus sanguineus), sealed with a perforated plastic lid and incubated in a horizontal position in the dark at room temperature and ambient humidity. After 48 h, the efficacy is determined. To this end, the ticks are knocked to the floor of the tube and incubated on a hotplate at 45-50° C. for at most 5 min Ticks which remain motionless on the floor or move in an uncoordinated manner such that they are not able to deliberately avoid the heat by climbing upwards are considered to be dead or moribund.
An efficacy of 100% means that all ticks were dead or moribund. 0% efficacy means that none of the ticks had been damaged.

[10] = HPLC on reversed-phase column (C18), acetonitrile/water with formic acid, EEC Directive 79/831 Annex V.A8

## N#CC1(NC(=O)c2cc(-c3cnn(-c4c(C(F)(F)F)c(C(F)(F)C(F)(F)F)nn4-c4ccccc4)c3)ccc2Cl)CC1 [Ic-7]
[1]
  efficacy (kill in %): 100%
[2]; application rate 100 g/ha
  efficacy in %: 100%
[3]
  efficacy (kill in %): 100%
[4]
  efficacy (kill in %): 100%
[5]; application rate 100 g/ha
  efficacy in %: 100%
[6]; [10]
  logP: 4.43
[7]
  efficacy (laying of fertile eggs): 100%

## COc1cc(C(=O)NC2CC2)cc(-c2cnn(-c3c(C(F)(F)F)c(C(F)(F)C(F)(F)F)nn3C)c2)c1 [Ic-62]
[1]
  efficacy (kill in %): 100%
[2]; application rate 500 g/ha
  efficacy in %: 100%
[3]
  efficacy (kill in %): 95%
[4]
  efficacy (kill in %): 100%
[5]; application rate 500 g/ha
  efficacy in %: 100%
[7]
  efficacy (laying of fertile eggs): 100%

## Cn1nc(C(F)(F)C(F)(F)F)c(C(F)(F)F)c1-n1cc(-c2cc(C(=O)NC3(C#N)CC3)cc(C(F)(F)F)c2)cn1 [Ic-60]
[1]
  efficacy (kill in %): 100%
[2]; application rate 500 g/ha
  efficacy in %: 100%
[3]
  efficacy (kill in %): 100%
[4]
  efficacy (kill in %): 100%
[5]; application rate 500 g/ha
  efficacy in %: 100%
[7]
  efficacy (laying of fertile eggs): 100%

## Cn1nc(C(F)(F)C(F)(F)F)c(C(F)(F)F)c1-n1cc(-c2cc(F)cc(C(=O)NC3(C#N)CC3)c2)cn1 [Ic-38]
[1]
  efficacy (kill in %): 100%
[2]; application rate 500 g/ha
  efficacy in %: 100%
[3]
  efficacy (kill in %): 100%
[4]
  efficacy (kill in %): 100%
[5]; application rate 500 g/ha
  efficacy in %: 100%
[7]
  efficacy (laying of fertile eggs): 100%

## Cn1nc(C(F)(F)C(F)(F)F)c(C(F)(F)F)c1-n1cc(-c2ccc(Cl)c(C(=O)Nc3ccncc3)c2)cn1 [Ic-22]
[8]
  efficacy in %: 100%
[2]; application rate 100 g/ha
  efficacy in %: 100%
[3]
  efficacy (kill in %): 100%
[4]
  efficacy (kill in %): 100%
[5]; application rate 100 g/ha
  efficacy in %: 100%
[6]; [10]
  logP: 2.38
[7]
  efficacy (laying of fertile eggs): 100%

## O=C(NC1CC1)c1cc(-c2cnn(-c3c(C(F)(F)F)c(C(F)(F)C(F)(F)F)nn3-c3ccccc3)c2)ccc1Cl [Ic-6]
[1]
  efficacy (kill in %): 90%
[2]; application rate 100 g/ha
  efficacy in %: 100%
[3]
  efficacy (kill in %): 100%
[4]
  efficacy (kill in %): 100%
[5]; application rate 100 g/ha
  efficacy in %: 100%
[6]; [10]
  logP: 4.54
[7]
  efficacy (laying of fertile eggs): 100%

## Cn1nc(C(F)(F)C(F)(F)F)c(C(F)(F)F)c1-n1cc(-c2cc(C(=O)NC3(C#N)CC3)ccc2Cl)cn1 [Ic-45]
[1]
  efficacy (kill in %): 100%
[2]; application rate 500 g/ha
  efficacy in %: 100%
[3]
  efficacy (kill in %): 100%
[4]
  efficacy (kill in %): 100%
[5]; application rate 500 g/ha
  efficacy in %: 100%

## Cn1nc(C(F)(F)C(F)(F)F)c(C(F)(F)F)c1-n1cc(-c2ccc(Cl)c(C(=O)NCc3cccs3)c2)cn1 [Ic-10]
[8]
  efficacy in %: 100%
[2]; application rate 100 g/ha
  efficacy in %: 100%
[3]
  efficacy (kill in %): 98%
[4]
  efficacy (kill in %): 100%
[5]; application rate 100 g/ha
  efficacy in %: 100%
[6]; [10]
  logP: 4.40
[7]
  efficacy (laying of fertile eggs): 100%

## Cc1cc(C(=O)NC2CC2)cc(-c2cnn(-c3c(C(F)(F)F)c(C(F)(F)C(F)(F)F)nn3C)c2)c1 [Ic-54]
[2]; application rate 500 g/ha
  efficacy in %: 100%
[3]
  efficacy (kill in %): 100%
[4]
  efficacy (kill in %): 100%
[9]; application rate 1 μg/cm^2
  efficacy (dead or moribund ticks): 100%
[9]; application rate 5 μg/cm^2
  efficacy (dead or moribund ticks): 100%
[7]
  efficacy (laying of fertile eggs): 100%

## Cn1nc(C(F)(F)C(F)(F)F)c(C(F)(F)F)c1-n1cc(-c2cccc(C(=O)NCc3ccccc3)c2)cn1 [Ic-17]
[8]
  efficacy in %: 100%
[2]; application rate 100 g/ha
  efficacy in %: 100%
[3]
  efficacy (kill in %): 90%
[4]
  efficacy (kill in %): 100%
[5]; application rate 100 g/ha
  efficacy in %: 100%
[6]; [10]
  logP: 4.31
[7]
  efficacy (laying of fertile eggs): 100%

## Cc1ccc(C(=O)NC2(C#N)CC2)cc1-c1cnn(-c2c(C(F)(F)F)c(C(F)(F)C(F)(F)F)nn2C)c1 [Ic-58]
[1]
  efficacy (kill in %): 80%
[2]; application rate 500 g/ha
  efficacy in %: 100%
[3]
  efficacy (kill in %): 100%
[4]
  efficacy (kill in %): 100%
[7]
  efficacy (laying of fertile eggs): 100%

## Cn1nc(C(F)(F)C(F)(F)F)c(C(F)(F)F)c1-n1ccc(-c2ccc(Cl)c(C(=O)NC3(C#N)CC3)c2)n1 [Id-1]
[1]
  efficacy (kill in %): 100%
[2]; application rate 100 g/ha
  efficacy in %: 100%
[3]
  efficacy (kill in %): 100%
[4]
  efficacy (kill in %): 100%
[5]; application rate 100 g/ha
  efficacy in %: 100%
[6]; HPLC, reversed-phase C18, acetonitrile (0.1% formic acid)/water (0.09% formic acid) gradient
  logP: 3.87
[7]
  efficacy (laying of fertile eggs): 100%

## Cc1ccc(C(=O)NC2CC2)cc1-c1cnn(-c2c(C(F)(F)F)c(C(F)(F)C(F)(F)F)nn2C)c1 [Ic-57]
[1]
  efficacy (kill in %): 100%
[2]; application rate 100 g/ha
  efficacy in %: 83%
[3]
  efficacy (kill in %): 100%
[4]
  efficacy (kill in %): 100%

## Cn1nc(C(F)(F)C(F)(F)F)c(C(F)(F)F)c1-n1cc(-c2cccc(C(=O)NC3CC3)c2F)cn1 [Ic-33]
[1]
  efficacy (kill in %): 100%
[2]; application rate 500 g/ha
  efficacy in %: 100%
[3]
  efficacy (kill in %): 100%
[4]
  efficacy (kill in %): 100%
[5]; application rate 500 g/ha
  efficacy in %: 83%
[7]
  efficacy (laying of fertile eggs): 100%
